# Where “and” joins values, the source holds several entries; their conditions need not be identical. Equal values may be shown once. Entries after “also recorded” stand apart in the source; their conditions may differ. Read-outs that look alike come from different tables or passages of the source.
# What was measured:
# [1] = tested on: platinum-resistant urothelial carcinoma; assay: Clinical trial of sacituzumab govitecan in 6 patients with metastatic platinum-resistant urothelial carcinoma (PRUC)
# Protocol: Response was assessed using the Response Evaluation Criteria in Solid Tumors, version 1.1.
# [2] = in vivo
# [3] = tested on: metastatic triple-negative breast cancer (TNBC); assay: Phase I/II clinical trial (NCT01631552) of sacituzumab govitecan in relapsed/refractory metastatic TNBC; format: in vivo, human
# Protocol: Patients with relapsed/refractory TNBC who had previously failed at at least one prior line of therapy were enrolled in a single-arm, multicenter trial (Bardia et al., 2019, N Engl J Med 380:741-51). The present study reports on 108 patients who had failed at least two prior lines of therapy (median three prior therapies) (Bardia et al., 2019, N Engl J Med 380:741-51). […] Of the 108 patients, 107 were female and 1 was male, with a median age of 55. […] Tumor staging was performed by computed tomography (CT) and MRI at baseline, followed up at 8 week intervals from the start of treatment until disease progression.
# [4] = tested on: metastatic small-cell lung cancer
# Description: Previous therapy had to be completed at least 4 weeks before enrollment.
# Treatment was continued until disease progression, initiation of alternative anticancer therapy, unacceptable toxicity, or withdrawal of consent.
# The primary endpoint was the proportion of patients with a confirmed objective response, assessed approximately every 8 weeks until disease progression, by each institution's radiology group or a contracted local radiology service. […] Partial (PR) or complete responses (CR) required confirmation within 4 to 6 weeks after the initial response. Clinical benefit rate (CBR) is defined as those patients with an objective response plus stable disease (SD)≥4 months. Survival was monitored every 3 months until death or withdrawal of consent.
# Safety evaluations were conducted during scheduled visits or more frequently if warranted.
# The frequency and severity of adverse events (AEs) were defined by MedDRA Preferred Term and System Organ Class (SOC) version 10, with severity assessed by NCI-CTCAE v4.03.
# The protocol provided that objective response rates (ORR) were determined for patients who received ≥2 doses (1 cycle) and had their initial 8-week CT assessment. Duration of response is defined in accordance to RECIST 1.1 criteria, with those having an objective response marked from time of the first evidence of response until progression, while stable disease duration is marked from the start of treatment until progression. PFS and OS were defined from the start of treatment until an objective assessment of progression was determined (PFS) or death (OS).
# [5] = tested on: metastatic urothelial cancer; settings: cited from earlier work
# [6] = tested on: metastatic small-cell lung cancer; settings: cited from earlier work
# [7] = tested on: platinum-resistant urothelial carcinoma; settings: 6 patients; cited from earlier work
# [8] = Immunogenicity: serum antibody responses to sacituzumab govitecan, the IgG and SN-38 by ELISA in mSCLC patients; format: in vivo, human; settings: up to 63 doses / up to 22 months of treatment
# Protocol: Positivity required at least 10% of the tumor cells to be stained, with an intensity scored as 1+ (weak), 2+ (moderate), and 3+ (strong). […] Assay sensitivity is 50 ng/mL for the ADC and the IgG, and 170 ng/mL for anti-SN-38 antibody.
# [9] = Pharmacokinetics in patient serum: ELISA for IgG and intact conjugate, HPLC for SN-38; format: in vivo, human
# Protocol: SN-38 was measured by HPLC.
# [10] = 36 patients with objective response
# [11] = any grade, 108 patients, 10 mg/kg
# [12] = SG given as >3 line, no prior topotecan/irinotecan (N = 9)
# [13] = SG given as >3 line, prior topotecan/irinotecan (N = 15)
# [14] = patients resistant (N = 19) to 1st line
# [15] = patients sensitive (N = 24) to 1st line
substance,measurement,setting,value
sacituzumab govitecan,grade 4 non-hematologic toxicities,[1]; 6 patients,No grade 4 non-hematologic toxicities were observed
same,tolerability,[1]; 6 patients,generally well tolerated
same,patients with a clinically significant response,[1]; of 6 patients,3 patients
same,patients with grade 3 toxicities (flank pain and bacteremia),[1]; of 6 patients,Two
same,patients with progressive disease,[1]; of 6 patients,3 patients
same,patients with partial response,"[1]; of 6 patients, RECIST 1.1",Two
same,"reduction in target lesions, patient with progressive disease because of a new lesion",[1]; one patient,12%
same,"reduction in target lesions, patient with stable disease",[1]; one patient,28%
same,"reduction in target lesions, best responder","[1]; partial response, including liver metastases",38%
same,SN-38 released daily,[2],50%
same,response rate among patients who had failed previous checkpoint inhibitor therapy,[3]; 10 mg/kg,44%
same,median duration of response,[3]; [10],7.7 months
same,median time to response,[3]; [10],2.0 months
same,"anemia, grade 3","[3]; 108 patients, 10 mg/kg",11%
same,complete responses (CR),"[3]; 108 patients, 10 mg/kg",2.8%
same,"decreased white blood cell count, grade 4","[3]; 108 patients, 10 mg/kg",3%
same,"diarrhea, grade 3","[3]; 108 patients, 10 mg/kg",8%
same,"fatigue, grade 3","[3]; 108 patients, 10 mg/kg",8%
same,"hyperglycemia, grade 4","[3]; 108 patients, 10 mg/kg",1%
same,median overall survival,"[3]; 108 patients, 10 mg/kg",13.0 months
same,median progression-free survival,"[3]; 108 patients, 10 mg/kg",5.5 months
same,"nausea, grade 3","[3]; 108 patients, 10 mg/kg",6%
same,"neutropenia, grade 3","[3]; 108 patients, 10 mg/kg",26%
same,"neutropenia, grade 4","[3]; 108 patients, 10 mg/kg",16%
same,"vomiting, grade 3","[3]; 108 patients, 10 mg/kg",6%
same,response rate (CR+PR),"[3]; 108 patients, >=2 prior lines, 10 mg/kg, local assessment",33.3%
same,"anemia, % of patients",[3]; [11],50%
same,"diarrhea, % of patients",[3]; [11],62%
same,"fatigue, % of patients",[3]; [11],55%
same,"nausea, % of patients",[3]; [11],67%
same,"neutropenia, % of patients",[3]; [11],64%
same,"vomiting, % of patients",[3]; [11],49%
same,patients with long-term responses of more than 12 months,[3]; as of data cutoff,6 patients
same,estimated probability that a patient would exhibit a response,[3]; at 6 months,59.7%
same,estimated probability that a patient would exhibit a response,[3]; at 12 months,27.0%
same,patients who discontinued treatment due to adverse events,[3]; of 108 patients,Three
same,confirmed PR,[4]; 19 patients resistant to first-line platinum,16%
same,confirmed PR,[4]; 24 patients sensitive to first-line platinum,17%
same,"PD, %",[4]; 43 assessable patients,(35%)
same,stable disease including unconfirmed PR,[4]; 43 assessable patients (21 patients),49%
same,treatment-related deaths,[4]; 53 patients,No treatment-related deaths were observed
same,"OS, seven confirmed PR patients","[4]; 95% CI 6.2, 20.9",9.2 months
same,"OS, ten patients with SD >=4 months","[4]; 95% CI 7.5, 22.4",8.3 months
same,"median PFS, confirmed PR group","[4]; 95% CI 7.6, 21.9",7.9 months
same,"Duration of confirmed objective response, median","[4]; Kaplan-Meier, 95% CI 3.6, 19.9",5.7 months
same,"Clinical benefit rate (PR + SD >= 4 months), %",[4]; SG as >=3 line (N = 24),(38%)
same,OS median,[4]; SG as >=3 line (N = 24),7.0 months
same,PFS median,[4]; SG as >=3 line (N = 24),3.7 months
same,"Clinical benefit rate (PR + SD >= 4 months), %",[4]; SG as second line (N = 19),(37%)
same,OS median,[4]; SG as second line (N = 19),8.1 months
same,PFS median,[4]; SG as second line (N = 19),3.6 months
same,"Clinical benefit rate (PR + SD >= 4 months), %",[4]; [12],(33%)
same,OS median,[4]; [12],5.5 months
same,PFS median,[4]; [12],3.7 months
same,"Clinical benefit rate (PR + SD >= 4 months), %",[4]; [13],(40%)
same,OS median,[4]; [13],8.8 months
same,PFS median,[4]; [13],3.8 months and 3.6 months
same,grade 3 or 4 anemia,"[4]; human, in vivo",8%
same,grade 3 or 4 diarrhea,"[4]; human, in vivo",9%
same,grade 3 or 4 fatigue,"[4]; human, in vivo",13%
same,grade 3 or 4 hyponatremia,"[4]; human, in vivo",8%
same,grade 3 or 4 increased alkaline phosphatase,"[4]; human, in vivo",8%
same,grade 3 or 4 neutropenia,"[4]; human, in vivo",34%
same,infusion-related reactions,"[4]; human, in vivo",No infusion-related reactions were reported
same,patients with dose reduction,"[4]; human, in vivo",13%
same,"Overall survival, median",[4]; intention-to-treat N = 53,7.0 months
same,"Progression-free survival, median",[4]; intention-to-treat N = 53,3.6 months
same,"duration of SD, patient with 17% tumor shrinkage",[4]; one patient with prior CPI,8.7 months
same,"duration of SD, patient with no change in tumor size",[4]; one patient with prior CPI,3.7 months
same,"tumor shrinkage, patient with SD",[4]; one patient with prior CPI,17%
same,"tumor shrinkage on first assessment, patient with unconfirmed PR",[4]; one patient with prior checkpoint inhibitor (CPI),54%
same,"Clinical benefit rate (PR + SD >= 4 months), %",[4]; [14],(26%)
same,OS median,[4]; [14],6.2 months
same,PFS median,[4]; [14],3.6 months
same,"Clinical benefit rate (PR + SD >= 4 months), %",[4]; [15],(50%)
same,OS median,[4]; [15],8.3 months
same,PFS median,[4]; [15],3.8 months
same,PR,[4]; second-line setting (3/19),16%
same,median time to response,"[4]; seven confirmed PR, range 1.8 to 3.6",2.0 months
same,confirmed PR,"[4]; starting dose 8 mg/kg, 13 patients",8%
same,CBR,[4]; starting dose 10 mg/kg (14/30),47%
same,confirmed PR,[4]; starting dose 10 mg/kg (N = 30),20%
same,Kaplan-Meier-derived median duration of SD,"[4]; ten patients with SD >=4 months, 95% CI 5.2, 9.7",5.6 months
same,confirmed PR,[4]; third or higher line (N = 24),16%
same,CR (complete response),[5]; 25 assessable patients,1 patients
same,ORR,[5]; 25 assessable patients,36%
same,PR (partial response),[5]; 25 assessable patients,8 patients
same,"ORR, 1 line of prior chemotherapy",[5]; in vivo,53.8%
same,"ORR, two or more prior therapies",[5]; in vivo,16.7%
same,median PFS,[5]; in vivo,7.2 months
same,ORR,"[6]; 53 mSCLC patients (Gray et al., 2017)",14%
same,median OS,"[6]; Gray et al., 2017",7.5 months
same,median PFS,"[6]; Gray et al., 2017",3.7 months
same,median response duration,"[6]; Gray et al., 2017",5.7 months
same,patients with tumor shrinkage from baseline,"[6]; Gray et al., 2017",Sixty
same,clinically significant response,[7],50%
same,"immunogenicity (antibodies to sacituzumab govitecan, hRS7 antibody or SN-38)",[8],not immunogenic; also recorded: No neutralizing antibodies
same,clearance of intact conjugate compared with the IgG,[9]; ELISA,cleared more quickly than the IgG
same,SN-38 in the serum bound to the IgG,"[9]; HPLC, Unbound and TOTAL, non-glucuronidated form",> 95%
same,clearance of the conjugate from the serum,[9]; patients,≤ 3 days

# Reference: patent US20210093730A1, “BIOMARKERS FOR ANTIBODY-DRUG CONJUGATE MONOTHERAPY OR COMBINATION THERAPY” (Immunomedics, Inc., priority 2019, published 2021)
